The text below walks through data of article PMC3907537, “Evaluation of the Endothelin Receptor Antagonists Ambrisentan, Bosentan, Macitentan, and Sitaxsentan as Hepatobiliary Transporter Inhibitors and Substrates in Sandwich-Cultured Human Hepatocytes” (PLoS ONE, 2014).

Where “and” joins values, the source holds several entries; their conditions need not be identical. Equal entries are not always repeated. Bounds are passed on as bounds.

One data set has as its target T1, NTCP (Homo sapiens, UniProt Q14973).
T1 construct: host or cells: CHO
T1 sequence (Q14973 1-349): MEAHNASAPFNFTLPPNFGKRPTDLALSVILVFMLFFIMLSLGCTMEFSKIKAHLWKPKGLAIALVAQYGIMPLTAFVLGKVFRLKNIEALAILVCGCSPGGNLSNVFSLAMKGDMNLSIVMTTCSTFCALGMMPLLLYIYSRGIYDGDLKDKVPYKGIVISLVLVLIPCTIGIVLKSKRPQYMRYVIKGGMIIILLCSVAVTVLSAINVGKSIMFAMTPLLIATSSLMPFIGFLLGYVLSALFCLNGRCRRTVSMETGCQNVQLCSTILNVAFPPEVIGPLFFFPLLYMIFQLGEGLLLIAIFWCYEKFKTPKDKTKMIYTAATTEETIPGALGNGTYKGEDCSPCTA
Briefly: NTCP inhibition, 3H taurocholate uptake in transfected CHO cells. The class given is cell-based. The settings on record: mean ± SD of 3 independent studies in duplicate, tested 0.14–100 µM. The source says: Chinese Hamster Ovary (CHO) cells were obtained from Professor B. Stieger’s laboratory at University of Zurich, Zurich, Switzerland. Madin-Darby Canine Kidney strain II (MDCKII) cells were obtained from Nederlands Kanker Instituut (NKI), Amsterdam, Netherlands. NTCP-CHO cells, BSEP and MRP2 membrane vesicles were developed and validated at Solvo Biotechnology, Budaors, Hungary.
CHO cells, either wild type or transfected with the genes encoding human NTCP, OATP1B1 and OATP1B3, were maintained in Dulbecco’s Modification of Eagle’s Medium (DMEM) containing 1,000 mg/L D-glucose, L-glutamine, 25 mM HEPES buffer, 110 mg/L sodium pyruvate, 1% Penicillin/Streptomycin, 10% fetal bovine serum (FBS), 0.05 mg/mL L proline and 0.5 mg/mL of geneticin G-418. Cells were maintained in incubators set at 37°C, 90% humidity and 5% CO2. OATP1B1 and OATP1B3 over-expressing cells were seeded in BioCoat Poly-D-Lysine coated 96-well black cell culture plates with clear bottoms at a density of 1×10^5 cells/well. Sodium butyrate (10 mM) was added to the OATP1B1 and OATP1B3 cells once seeded to increase the protein expression level and the cells were grown to confluence overnight. The assay buffer contained 142 mM NaCl, 5 mM KCl, 1 mM KH2PO4, 1.2 mM MgSO4, 1.5 mM CaCl2, 5 mM Glucose and 12.5 mM HEPES (pH 7.4). After removal of the media and before adding test compounds, the cells were washed twice with 37°C assay buffer followed by a 0.5 h pre-incubation with assay buffer. […] Wells were analyzed for Fluo 3 fluorescence at an excitation of 485 nm and emission of 530 nm. Inhibition of NTCP was studied using similar conditions to those described for OATP1B1 and OATP1B3 except that inhibition of the uptake ^3H taurocholate into transfected CHO cells was monitored using radioactive scintillation counting.
All assays were performed in duplicate. […] IC50 values were calculated using non-linear fitting of % inhibition versus concentration to a sigmoidal curve with a variable Hill Coefficient using GraphPad Prism 5 (GraphPad Software Inc., San Diego, CA).

The conditions of data set [1]: cited from earlier work.
The test system of the next data set is fresh human hepatocytes. Briefly: Cellular uptake of bosentan and macitentan into fresh human hepatocytes with or without transport inhibitors. The conditions noted are these: 300 nM. The class given is in vitro ADME. As for the experimental part: The cellular uptake of bosentan and macitentan was determined in fresh human hepatocytes purchased from Celsis/IVT (Baltimore, MD) or Life Technologies (Foster City, CA). Cells were pre-incubated in Krebs-Henseleit Buffer containing 5% bovine serum albumin for 30 min at 37°C prior to assay. Cells were then co-incubated in the presence and absence of an inhibitor cocktail containing 40 µM rifampicin and 5 µM of cyclosporin A for 15 min. Test compounds bosentan and macitentan were diluted to 3 fold of final target concentration in the same assay buffer and equilibrated at 37°C for 30 min. The uptake assay was initiated by adding 50 µL of test compound solution to the 48-well plate containing 100 µL cell suspension, mixed and incubated at 37°C for 30, 60 and 90 sec. Final cell density was 2×10^6 cells/mL with a final test compound concentration of 300 nM. The reaction mixture was overlaid onto pre-prepared microcentrifuge tubes containing 100 µL of 2 N NaOH (bottom layer) and 100 µL of filtration oil (middle layer; 74.5∶25.5 silicon oil:mineral oil mix) followed by centrifugation at 13,000 g for 30 sec. The samples were allowed to sit at room temperature for 2 h and then frozen at −80°C. The microcentrifuge tubes were then cut and the bottom layer containing the cell lysate collected. HCl solution was added to neutralize the solution. Samples were extracted with organic solvents for analysis by liquid chromatography coupled to tandem mass spectrometry (LC/MS/MS).

Data set [2] relates to BSEP. Details: method as in PMID 11309550, PMID 20829430, PMID 17061295, PMID 23956101. The settings on record: read-out: BSEP inhibition values previously reported (IC50); cited from earlier work.
Another data set relates to murine Pgp. Details: method as in PMID 23353592. The settings on record: cited from earlier work.
A further data set has as its target T2, Pgp (Homo sapiens, UniProt P08183).
T2 construct: host or cells: MDCKII
Also on record: method as in earlier work. The conditions noted are these: data previously reported, similar conditions ref 35; cited from earlier work.

In data set [3] the target is T3, BSEP (Homo sapiens, UniProt O95342).
T3 construct: purchased Solvo Biotechnology, Budaors, Hungary; host or cells: Sf9 insect cells (membrane vesicles)
Also on record: method as in earlier work. The conditions noted are these: data previously reported, same assay conditions ref 35; cited from earlier work.

T3 sequence (O95342 whole entry): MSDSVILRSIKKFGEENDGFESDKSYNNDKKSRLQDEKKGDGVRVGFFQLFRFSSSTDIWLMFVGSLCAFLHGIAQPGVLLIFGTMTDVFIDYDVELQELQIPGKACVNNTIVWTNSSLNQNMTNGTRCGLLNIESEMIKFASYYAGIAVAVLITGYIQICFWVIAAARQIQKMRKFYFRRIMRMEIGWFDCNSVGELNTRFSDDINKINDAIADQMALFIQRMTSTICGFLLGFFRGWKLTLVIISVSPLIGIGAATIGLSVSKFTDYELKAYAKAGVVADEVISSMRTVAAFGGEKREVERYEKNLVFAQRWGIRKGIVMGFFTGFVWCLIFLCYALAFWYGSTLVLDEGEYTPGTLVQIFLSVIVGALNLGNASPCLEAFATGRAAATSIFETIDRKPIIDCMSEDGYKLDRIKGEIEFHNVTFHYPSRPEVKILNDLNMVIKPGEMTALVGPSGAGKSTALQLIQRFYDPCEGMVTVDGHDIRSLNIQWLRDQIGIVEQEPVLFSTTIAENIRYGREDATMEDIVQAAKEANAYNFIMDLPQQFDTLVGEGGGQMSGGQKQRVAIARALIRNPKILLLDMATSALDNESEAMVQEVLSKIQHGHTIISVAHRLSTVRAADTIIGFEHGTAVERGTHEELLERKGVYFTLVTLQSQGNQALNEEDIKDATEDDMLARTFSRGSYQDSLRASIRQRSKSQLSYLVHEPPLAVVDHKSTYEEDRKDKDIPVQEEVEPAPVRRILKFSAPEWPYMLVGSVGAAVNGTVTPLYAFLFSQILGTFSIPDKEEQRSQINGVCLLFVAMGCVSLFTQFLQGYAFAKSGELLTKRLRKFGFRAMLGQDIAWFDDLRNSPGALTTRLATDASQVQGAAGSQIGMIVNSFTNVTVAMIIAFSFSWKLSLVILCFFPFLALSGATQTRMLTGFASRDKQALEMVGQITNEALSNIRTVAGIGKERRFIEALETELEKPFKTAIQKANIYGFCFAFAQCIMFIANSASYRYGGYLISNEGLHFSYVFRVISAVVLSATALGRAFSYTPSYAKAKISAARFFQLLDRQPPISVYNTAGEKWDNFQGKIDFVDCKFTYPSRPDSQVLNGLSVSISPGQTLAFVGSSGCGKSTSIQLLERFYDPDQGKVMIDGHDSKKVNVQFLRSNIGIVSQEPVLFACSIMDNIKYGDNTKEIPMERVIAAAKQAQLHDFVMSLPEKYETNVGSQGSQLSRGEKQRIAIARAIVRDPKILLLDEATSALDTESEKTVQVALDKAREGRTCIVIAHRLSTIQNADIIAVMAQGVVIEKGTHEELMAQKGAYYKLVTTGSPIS
T2 sequence (P08183 whole entry): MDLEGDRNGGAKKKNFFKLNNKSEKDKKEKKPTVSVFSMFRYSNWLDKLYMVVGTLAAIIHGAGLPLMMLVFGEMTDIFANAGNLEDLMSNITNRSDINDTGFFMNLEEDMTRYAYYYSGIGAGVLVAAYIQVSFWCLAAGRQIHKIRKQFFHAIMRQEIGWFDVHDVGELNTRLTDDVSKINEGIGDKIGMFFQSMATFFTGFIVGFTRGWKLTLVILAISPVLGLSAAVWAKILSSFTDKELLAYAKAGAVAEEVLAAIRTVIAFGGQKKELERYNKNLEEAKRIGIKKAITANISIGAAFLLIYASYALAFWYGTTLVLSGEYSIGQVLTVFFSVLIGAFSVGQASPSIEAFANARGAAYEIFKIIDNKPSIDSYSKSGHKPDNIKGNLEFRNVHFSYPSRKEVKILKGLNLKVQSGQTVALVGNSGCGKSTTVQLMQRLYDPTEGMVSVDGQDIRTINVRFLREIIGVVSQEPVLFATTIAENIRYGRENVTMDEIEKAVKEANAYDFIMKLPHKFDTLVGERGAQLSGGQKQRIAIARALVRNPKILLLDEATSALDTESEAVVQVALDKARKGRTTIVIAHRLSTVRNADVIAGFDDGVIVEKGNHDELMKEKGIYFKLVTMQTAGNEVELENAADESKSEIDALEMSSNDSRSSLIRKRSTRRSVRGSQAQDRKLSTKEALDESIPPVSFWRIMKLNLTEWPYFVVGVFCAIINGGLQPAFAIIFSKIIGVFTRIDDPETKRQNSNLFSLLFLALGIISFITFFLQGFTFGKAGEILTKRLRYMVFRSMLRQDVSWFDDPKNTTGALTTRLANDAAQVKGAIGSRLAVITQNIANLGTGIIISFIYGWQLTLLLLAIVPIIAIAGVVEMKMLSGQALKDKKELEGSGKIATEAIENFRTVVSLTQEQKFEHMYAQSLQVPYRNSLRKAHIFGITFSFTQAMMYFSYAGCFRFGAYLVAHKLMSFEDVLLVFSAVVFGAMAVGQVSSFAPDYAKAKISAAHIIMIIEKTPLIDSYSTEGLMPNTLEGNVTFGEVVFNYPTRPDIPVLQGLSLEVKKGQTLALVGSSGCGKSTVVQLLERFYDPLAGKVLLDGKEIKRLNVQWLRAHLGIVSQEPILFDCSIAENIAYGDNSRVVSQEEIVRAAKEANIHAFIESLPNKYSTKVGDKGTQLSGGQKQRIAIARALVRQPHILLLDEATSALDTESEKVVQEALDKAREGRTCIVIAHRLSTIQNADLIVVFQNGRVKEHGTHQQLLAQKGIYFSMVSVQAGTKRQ

Turning to `COC(c1ccccc1)(c1ccccc1)[C@H](Oc1nc(C)cc(C)n1)C(=O)O` [ambrisentan], the half-maximal inhibitory concentration (IC50) – broadly, the concentration at which inhibition is half-maximal – against NTCP was over 100 µM. In addition, the “patients with serum aminotransferase concentrations >3 times ULN” value in data set [1] (ARIES studies, n = 261 ref 11) is “none”. Further, the “incidence of elevated aminotransferase >3 times ULN” value in data set [1] (ARIES-E long-term extension, mean follow-up of 1.4 years ref 12) is given as 1.8%.

On to `COc1ccccc1Oc1c(NS(=O)(=O)c2ccc(C(C)(C)C)cc2)nc(-c2ncccn2)nc1OCCO` [bosentan], for which the half-inhibitory concentration (IC50) was 36 µM and 35.6 µM against NTCP; 12 to 76.8 µM in the data set on BSEP [2]. Also, the “reduction of cellular uptake in the presence of transport inhibitors” value in the data set on fresh human hepatocytes (40 µM rifampicin plus 5 µM cyclosporin A, fresh human hepatocytes) came out at 46%. Moreover, in the data set with fresh human hepatocytes (fresh primary human hepatocytes, n = 4 donors), the “cellular uptake in the absence of transport inhibitors” value was 4.6±0.7 pmol/million cells and 4.6 pmol/million cells.

For `CCCNS(=O)(=O)Nc1ncnc(OCCOc2ncc(Br)cn2)c1-c1ccc(Br)cc1` [macitentan], the concentration for half-maximal inhibition (IC50) on NTCP was 10 µM and 9.8 µM; in the data set with murine Pgp it was 4.4 µM and 4 µM. Further, the “cellular uptake relative to that of bosentan” value in the data set on fresh human hepatocytes (human) is on record as “approximately 7 times”.

Turning to `Cc1cc2c(cc1CC(=O)c1sccc1S(=O)(=O)Nc1onc(C)c1Cl)OCO2` [sitaxsentan], the IC50 at Pgp is over 100 µM; at BSEP [3], 25 µM.
